Read-outs that look alike come from different tables or passages of the source.
What was measured:
[1] = test system: S. cerevisiae strain expressing the 1100 (An11g01100) transporter; test: toxic effect of pentose on yeast growth, strain expressing 1100 transporter; format: cell-based, Saccharomyces cerevisiae; conditions: 50 mM maltose, YNB + 2% agar + 0.5 mM CuSO4; further: key: ++++: very good growth; +++: good growth; ++: poor growth; +: very poor growth; +/−: growth barely visible; −: no growth
Method: (§1) Yeast strain EB.VW4000 was grown on YP [1% (w/v) Bacto yeast extract/2% (w/v) Bacto peptone]with 2% (w/v) maltose at 30° C. (ref strain). Other S. cerevisiae strains used were derived from strain EB.VW4000, and were transformed with plasmids based on pYEX-BX (Clontech). Plasmid transformations of yeast cells were carried out according to the quick and easy TRAFO protocol [TRAFO reference]. Yeast strains were grown at 30° C. in a rotary shaker at 250 rev./min, in YNB[0.67% (w/v) Difco yeast nitrogen base] supplemented with 0.1% (w/v) casamino acids and 0.2 mg/l tryptophan, 20 mg/l leucine, 20 mg/l histidine, 122 mg/l uridine. The carbon sources used were as stated in the text. Unless stated otherwise, 0.5 mM CuSO4 was used to induce expression from the CUP1 promoter.
(§2) Yeast strains provided with an exemplary novel pentose transporter were studied with respect to the effect of growth in the presence of pentose sugars.

[2] = test system: S. cerevisiae strain expressing the 0560 (An06g00560) transporter; test: toxic effect of pentose on yeast growth, strain expressing 0560 transporter; format: cell-based, Saccharomyces cerevisiae; conditions: 50 mM maltose, YNB + 2% agar + 0.5 mM CuSO4; further: key: ++++: very good growth; +++: good growth; ++: poor growth; +: very poor growth; +/−: growth barely visible; −: no growth
Method: as §1, §2

[3] = test system: Aspergillus niger pentose transporter protein An08g01720 (1720), FIG. 4A; test: zero trans-influx sugar transport assay (14C-labelled pentose uptake, transporter expressed in S. cerevisiae); format: biochemical
Text: (§3) Cells were kept on ice until required.

[4] = test system: Aspergillus niger pentose transporter protein An06g00560 (0560), FIG. 1A; test: as above; format: biochemical; conditions: read-out: Km for L-arabinose, 5 s, 30° C., pH 6.5
Text: as §3

[5] = test system: Aspergillus niger pentose transporter protein An03g01620 (1620), FIG. 3A; test: as above; format: biochemical
Text: as §3

[6] = substrate: OC1OC[C@H](O)[C@H](O)[C@H]1O; test: cells, lysate or membranes; conditions: other: zero trans-influx, 5 s, 30° C., pH 6.5
[7] = substrate: OC1OC[C@@H](O)[C@H](O)[C@H]1O; test: cells, lysate or membranes; conditions: other: zero trans-influx, 5 s, 30° C., pH 6.5

| Molecule | growth ([1]; 25 mM pentose) | growth ([1]; 50 mM pentose) | growth ([1]; 100 mM pentose) | growth ([1]; 500 mM pentose) | growth ([2]; 25 mM pentose) | growth ([2]; 50 mM pentose) | growth ([2]; 100 mM pentose) | growth ([2]; 500 mM pentose) | higher affinity for L-arabinose than An06g00560 ([3]; Km 4.9 mM compared to 75 mM) | Km ([3]; read-out: Km for L-arabinose, zero trans-influx, 5 s, 30° C., pH 6.5) [mM] | Km [4] [mM] | Km ([5]; read-out: Km for L-arabinose, 5 s, 30° C., pH 6.5) [mM] | Km ([5]; read-out: Km for D-xylose, 5 s, 30° C., pH 6.5) [mM] | Km [6] [mM mM] | Km [7] [mM mM] |
| --- | --- | --- | --- | --- | --- | --- | --- | --- | --- | --- | --- | --- | --- | --- | --- |
| OC1OC[C@H](O)[C@H](O)[C@H]1O (stereo partly drawn) [L-arabinose] | +++ | ++ | + | +/− | + | +/− | +/− | − | approximately 15 fold | 4.9 | 75 | 7.5 |  |  |  |
| OC1OC[C@@H](O)[C@H](O)[C@H]1O (stereo partly drawn) [D-xylose] | ++ | + | + | + | +++ | ++ | ++ | ++ |  |  |  |  | 23 |  |  |
| Aspergillus niger pentose transporter protein An03g02190 (2190), FIG. 8A (Aspergillus niger CBS 513.88) (protein) MPRKRPQDELNGDVLQQEAQATGPNDQKSEEGIVDTPIPLLTWRSFLMGIFVSMGGFLFGYDTGQISGFLEMPNFLQRYGQQQADGTYYFSNARSGLIVALLSIGTLIGALIAAPIADRVGRKWSISGWSAMVCVGITIQISSPFGKWYQVAMGRWVAGLGVGALSLLVPMYQAETGPRHIRGSLVSTYQLFITLGIFVANCINFGTEARNDTGSWRIPMGITYIWAMILGFGIALFPESARYDYRHGREAKAARTLSRMYGIPENHRMLKLEIGEIRQKFVEEQERGEITWSHLLHAPRMKYRVAVGVALQALQQLTGANYFFYYGTTIFRGAGISNSYVTQMILGGVNFGTTFLGLYLIENYGRRRSLITGALWMFVCFMVFASVGHFSLDHENPERTHTAGVVMVVFACLFILGFASTWGPMVWTIIAELYPSEFRARAMSLATASNWLWNFLLAFFTPFITSAIDFRLGYVFAGCLFLAAGLVYVAVIEGRGRTLEEIDTMYVMKVPPWKSSKYVFPDIDPYDRRGSILSKAGASHIPQVSGGNETLSPHTTEV |  |  |  |  |  |  |  |  |  |  |  |  |  | 2.6 | 9 |

— patent US20120295321A1, “Pentose Transporters and Uses Thereof” (Universiteit Utrecht Holding B.V., priority 2009, published 2012)
